This passage reports EC50 and EC90 results from patent US12448391B2, “Bicyclic derivatives for treating endoparasites” (Elanco Tiergesundheit AG, priority 2019, dated 2025).

In one assay the test system is D. immitis microfilariae. The experiment in a line: Dog heart worm microfilariae motility assay. The class given is cell-based. The note with it: Dirofilaria immitis, read-out: EC50 (motility inhibition).
The next assay deals with H. contortus larvae. Description: H. contortus Larval Development Assay (Hc LDA). The note with it: Haemonchus contortus, read-out: EC50 (motility inhibition).
A further assay relates to Caenorhabditis elegans. The experiment in a line: C. elegans development assay (Ce DA). The note with it: 48 h, read-out: EC90 (motility reduction).

Broadly, the EC50 is the concentration at which the effect is half-maximal. One may read the EC90 as the concentration needed for an effect of 90%.

Procedure for Caenorhabditis elegans: Caenorhabditis elegans (Ce): C. elegans development assay (Ce DA) measures the effect of compounds on developing nematodes. Eggs of C. elegans are deposited in a 384 well plate together with food (E. coli) and the treatment formulated in DMSO. Plates are incubated at 25° C. for 48 h to allow the development of nematodes up to the L4-stage. The effect of compounds is measured as motility reduction. Efficacy is expressed in % motility reduction compared to negative controls.
Procedure for H. contortus larvae: Ruminant Gastrointestinal (H. contortus Larval Development Assay (Hc LDA)):
H.c. eggs isolated from lamb fecal matter are allowed to hatch overnight. Test compounds are diluted in DMSO and added to a 96-well plate containing appropriate media. H.c. larvae are added to each well and plates are incubated for the desired time(s). Motility is assessed using an LCD camera imaging system. Percent motility inhibition values are generated relative to the average of the DMSO-only wells.

As to `O=C(NN1CCOc2ccccc21)c1cnc2c(-c3cc(Cl)nc(Cl)c3)cccc2c1N1CCOCC1` [Example 5.12, 8-(2,6-dichloro-4-pyridyl)-N-(2,3-dihydro-1,4-benzoxazin-4-yl)-4-morpholino-quinoline-3-carboxamide], the figures for the EC50 with D. immitis microfilariae and in the assay with H. contortus larvae were < 0.1 µg/mL and < 1 µg/mL, respectively.

Regarding `O=C(NN1CCOc2ccccc21)c1cnc2c(-c3cc(Cl)cc(Cl)c3F)cccc2c1N1CCOCC1` [Example 5.13, 8-(3,5-dichloro-2-fluoro-phenyl)-N-(2,3-dihydro-1,4-benzoxazin-4-yl)-4-morpholino-quinoline-3-carboxamide], the values for the EC50 with D. immitis microfilariae and with H. contortus larvae were < 0.1 µg/mL and < 1 µg/mL, respectively.

Regarding `O=C(NN1CCOc2ccccc21)c1cnc2c(-c3cc(Cl)cnc3F)cccc2c1N1CCOCC1` [Example 5.14, 8-(5-chloro-2-fluoro-3-pyridyl)-N-(2,3-dihydro-1,4-benzoxazin-4-yl)-4-morpholino-quinoline-3-carboxamide], the EC50 is < 0.1 µg/mL in the assay with D. immitis microfilariae and < 1 µg/mL with H. contortus larvae.

As for `O=C(NN1CCOc2ccccc21)c1cnc2c(-c3cc(F)cc(F)c3F)cccc2c1N1CCS(=O)(=O)CC1` [Example 5.15, N-(2,3-dihydro-1,4-benzoxazin-4-yl)-4-(1,1-dioxo-1,4-thiazinan-4-yl)-8-(2,3,5-trifluorophenyl)quinoline-3-carboxamide], the EC50 with D. immitis microfilariae is < 0.1 µg/mL; in the assay with H. contortus larvae it was < 1 µg/mL.

With `O=C(NN1CCOc2ccccc21)c1cnc2c(-c3cc(F)c(F)cc3F)cccc2c1N1CCOCC1` [Example 5.16, N-(2,3-dihydro-1,4-benzoxazin-4-yl)-4-morpholino-8-(2,4,5-trifluorophenyl)quinoline-3-carboxamide], the figures for the EC50 in the assay on D. immitis microfilariae and with H. contortus larvae were < 0.1 µg/mL and < 1 µg/mL, respectively.

As to `O=C(NN1CCOc2ccccc21)c1cnc2c(-c3cncc(Cl)n3)cccc2c1N1CCOCC1` [Example 5.17, 8-(6-chloropyrazin-2-yl)-N-(2,3-dihydro-1,4-benzoxazin-4-yl)-4-morpholino-quinoline-3-carboxamide], the EC50 is < 0.1 µg/mL in the assay with D. immitis microfilariae and < 1 µg/mL in the assay with H. contortus larvae.

Consider `O=C(NN1CCOc2ccccc21)c1cnc2c(-c3cncc(Cl)c3Cl)cccc2c1N1CCOCC1` [Example 5.18, 8-(4,5-dichloro-3-pyridyl)-N-(2,3-dihydro-1,4-benzoxazin-4-yl)-4-morpholino-quinoline-3-carboxamide], for which the EC50 is < 0.1 µg/mL in the assay with D. immitis microfilariae and < 1 µg/mL in the assay with H. contortus larvae.

As to `O=C(NN1CCOc2ccccc21)c1cnc2c(-c3cc(Cl)cc(F)c3F)cccc2c1N1CCOCC1` [Example 5.19, 8-(5-chloro-2,3-difluoro-phenyl)-N-(2,3-dihydro-1,4-benzoxazin-4-yl)-4-morpholino-quinoline-3-carboxamide], the figures for the EC50 with D. immitis microfilariae and in the assay with H. contortus larvae were < 0.1 µg/mL and < 1 µg/mL, respectively.

As for `O=C(NN1CCOc2ccccc21)c1cnc2c(-c3cc(F)c(F)c(F)c3F)cccc2c1N1CCOCC1` [Example 5.20, N-(2,3-dihydro-1,4-benzoxazin-4-yl)-4-morpholino-8-(2,3,4,5-tetrafluorophenyl)quinoline-3-carboxamide], the EC50 in the assay on D. immitis microfilariae is < 0.1 µg/mL; in the assay on H. contortus larvae, < 1 µg/mL.

As to `O=C(NN1CCOc2ccccc21)c1cnc2c(-c3cncc(F)c3Cl)cccc2c1N1CCOCC1` [Example 5.21, 8-(4-chloro-5-fluoro-3-pyridyl)-N-(2,3-dihydro-1,4-benzoxazin-4-yl)-4-morpholino-quinoline-3-carboxamide], the EC50 is < 0.1 µg/mL with D. immitis microfilariae and < 1 µg/mL in the assay with H. contortus larvae.

On to `O=C(NN1CCOc2ccccc21)c1cnc2c(-c3cc(Cl)cc(C(F)(F)F)n3)cccc2c1N1CCOCC1` [Example 5.22, 8-[4-chloro-6-(trifluoromethyl)-2-pyridyl]-N-(2,3-dihydro-1,4-benzoxazin-4-yl)-4-morpholino-quinoline-3-carboxamide], for which the EC50 is < 0.1 µg/mL with D. immitis microfilariae and < 1 µg/mL with H. contortus larvae.

Turning to `O=C(NN1CCc2ccccc21)c1cnc2c(-c3cc(F)cc(F)c3F)cccc2c1N1CCOCC1` [Example 5.24, N-indolin-1-yl-4-morpholino-8-(2,3,5-trifluorophenyl)quinoline-3-carboxamide], the EC50 is < 0.1 µg/mL with D. immitis microfilariae and < 1 µg/mL in the assay with H. contortus larvae.

As for `N#Cc1ccc2c(N3CCOCC3)c(C(=O)NN3CCOc4ccccc43)cnc2c1-c1cc(Cl)cc(Cl)c1` [Example 5.35, 7-cyano-8-(3,5-dichlorophenyl)-N-(2,3-dihydro-1,4-benzoxazin-4-yl)-4-morpholino-quinoline-3-carboxamide], in the assay on Caenorhabditis elegans, the EC90 is < 1 µg/mL.

For `O=C(NN1CCOc2ccccc21)c1cnc2c(-c3cc(F)cc(F)c3F)cccc2c1C1CC1` [Example 5.36, 4-cyclopropyl-N-(2,3-dihydro-1,4-benzoxazin-4-yl)-8-(2,3,5-trifluorophenyl)quinoline-3-carboxamide], the EC90 in the assay on Caenorhabditis elegans was < 1 µg/mL.

For `O=C(NN1CCOc2ccccc21)c1cnc2c(-c3cc(F)c(F)c(F)c3)c(F)ccc2c1N1CCOCC1` [Example 5.41, N-(2,3-dihydro-1,4-benzoxazin-4-yl)-7-fluoro-4-morpholino-8-(3,4,5-trifluorophenyl)quinoline-3-carboxamide], the EC90 in the assay on Caenorhabditis elegans is < 1 µg/mL.

As for `O=C(NN1CCOc2ccccc21)c1cnc2c(-c3cc(F)cc(F)c3F)cccc2c1C1CCOCC1` [Example 5.45, N-(2,3-dihydro-1,4-benzoxazin-4-yl)-4-tetrahydropyran-4-yl-8-(2,3,5-trifluorophenyl)quinoline-3-carboxamide], in the assay on Caenorhabditis elegans, the EC90 was < 1 µg/mL.

Take `O=C(NN1CCOc2ccccc21)c1cnc2c(-c3cc(Cl)cc(Cl)c3F)c(F)ccc2c1N1CCOCC1` [Example 5.47, 8-(3,5-dichloro-2-fluoro-phenyl)-N-(2,3-dihydro-1,4-benzoxazin-4-yl)-7-fluoro-4-morpholino-quinoline-3-carboxamide]: the EC90 in the assay with Caenorhabditis elegans is < 1 µg/mL.

On to `O=C(NN1CCOc2ccccc21)c1cnc2c(-c3cc(Cl)c(F)c(Cl)c3F)c(F)ccc2c1N1CCOCC1` [Example 5.48, 8-(3,5-dichloro-2,4-difluoro-phenyl)-N-(2,3-dihydro-1,4-benzoxazin-4-yl)-7-fluoro-4-morpholino-quinoline-3-carboxamide], for which the EC90 with Caenorhabditis elegans was < 1 µg/mL.

Regarding `O=C(NN1CCOc2ccccc21)c1cnc2c(-c3cc(F)nc(F)c3F)cccc2c1N1CCOCC1` [Example 5.49, N-(2,3-dihydro-1,4-benzoxazin-4-yl)-4-morpholino-8-(2,3,6-trifluoro-4-pyridyl)quinoline-3-carboxamide], the EC90 with Caenorhabditis elegans was < 1 µg/mL.

Take `O=C(NN1CCc2ccccc21)c1cnc2c(-c3cc(Cl)c(F)c(Cl)c3F)c(F)ccc2c1N1CCOCC1` [Example 5.54, 8-(3,5-dichloro-2,4-difluoro-phenyl)-7-fluoro-N-indolin-1-yl-4-morpholino-quinoline-3-carboxamide]: the EC90 in the assay with Caenorhabditis elegans was < 1 µg/mL.

As for `COC(C)c1c(C(=O)NN2CCOc3ccccc32)cnc2c(-c3cc(F)cc(F)c3F)cccc12` (stereo not shown) [Example 5.55, N-(2,3-dihydro-1,4-benzoxazin-4-yl)-4-(1-methoxyethyl)-8-(2,3,5-trifluorophenyl)quinoline-3-carboxamide], the EC90 in the assay with Caenorhabditis elegans was < 1 µg/mL.

Consider `CN(C)c1c(C(=O)NN2CCOc3ccccc32)cnc2c(-c3cc(Cl)c(F)c(Cl)c3F)c(F)ccc12` [Example 5.56, 8-(3,5-dichloro-2,4-difluoro-phenyl)-N-(2,3-dihydro-1,4-benzoxazin-4-yl)-4-(dimethylamino)-7-fluoro-quinoline-3-carboxamide], for which the EC90 in the assay with Caenorhabditis elegans was < 1 µg/mL.

Take `O=C(NN1CCOc2ccccc21)c1cnc2c(-c3c(F)c(F)cc(F)c3F)cccc2c1N1CCOCC1` [Example 5.57, N-(2,3-dihydro-1,4-benzoxazin-4-yl)-4-morpholino-8-(2,3,5,6-tetrafluorophenyl)quinoline-3-carboxamide]: in the assay with Caenorhabditis elegans, the EC90 was < 1 µg/mL.

As to `O=C(NN1CCOc2ccccc21)c1cnc2c(-c3cc(Cl)c(F)c(Cl)c3F)c(F)ccc2c1C1CC1` [Example 5.58, 4-cyclopropyl-8-(3,5-dichloro-2,4-difluoro-phenyl)-N-(2,3-dihydro-1,4-benzoxazin-4-yl)-7-fluoro-quinoline-3-carboxamide], the EC90 in the assay on Caenorhabditis elegans was < 1 µg/mL.

As for `O=C(NN1CCOc2ccccc21)c1cnc2c(-c3cc(C(F)(F)F)cc(C(F)(F)F)c3)c(F)ccc2c1N1CCOCC1` [Example 5.59, 8-[3,5-bis(trifluoromethyl)phenyl]-N-(2,3-dihydro-1,4-benzoxazin-4-yl)-7-fluoro-4-morpholino-quinoline-3-carboxamide], the EC90 with Caenorhabditis elegans was < 1 µg/mL.

Turning to `O=C(NN1CCOc2ccccc21)c1cnc2c(-c3cc(Cl)cc(F)c3F)c(F)ccc2c1N1CCOCC1` [Example 5.60, 8-(5-chloro-2,3-difluoro-phenyl)-N-(2,3-dihydro-1,4-benzoxazin-4-yl)-7-fluoro-4-morpholino-quinoline-3-carboxamide], the EC90 with Caenorhabditis elegans was < 1 µg/mL.

For the compound `O=C(NN1CCOc2ccccc21)c1cnc2c(-c3cc(Cl)cc(C(F)(F)F)c3)c(F)ccc2c1N1CCOCC1` [Example 5.61, 8-[3-chloro-5-(trifluoromethyl)phenyl]-N-(2,3-dihydro-1,4-benzoxazin-4-yl)-7-fluoro-4-morpholino-quinoline-3-carboxamide], in the assay with Caenorhabditis elegans, the EC90 was < 1 µg/mL.

`O=C(NN1CCOc2ccccc21)c1cnc2c(-c3cc(Cl)cc(Cl)c3)ncnc2c1N1CCOCC1` [Example 6.1, 4-(3,5-dichlorophenyl)-N-(2,3-dihydro-1,4-benzoxazin-4-yl)-8-morpholino-pyrido[3,2-d]pyrimidine-7-carboxamide]: the EC50 in the assay with D. immitis microfilariae was < 0.1 µg/mL; in the assay on H. contortus larvae it was < 1 µg/mL.

On to `O=C(NN1CCOc2ccccc21)c1cnc2c(-c3cc(Cl)cc(Cl)c3)cncc2c1N1CCOCC1` [Example 7.1, 8-(3,5-dichlorophenyl)-N-(2,3-dihydro-1,4-benzoxazin-4-yl)-4-morpholino-1,6-naphthyridine-3-carboxamide], for which the EC50 was < 0.1 µg/mL with D. immitis microfilariae and < 1 µg/mL in the assay with H. contortus larvae.
